Assays:
[1] = test system: S. pneumoniae D39V; assay: fitness (endpoint OD595 vs no drug) (fraction); higher = more growth
Summary of the method: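 Bacterial fitness was scored as optical density at the stationary-phase transition relative to the robust mean of no-drug control wells. Scores are capped at 1. The growth data were OD595 readings every 30 min for 14 h at 37 °C, background-subtracted against the first reading, from 384-well plates inoculated at OD595 0.01 in TSB, LB Lennox or CY.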

[2] = test system: B. subtilis 168; assay: Bliss interaction score (quartile over a dose matrix) (fitness difference); higher = more antagonism (negative = synergy)
Summary of the method: (§1)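 Fitness here means normalised growth, inferred for single drugs from the combination data. Growth was OD595 at entry into stationary phase, divided by the plate's robust no-drug mean and capped at 1. The Bliss score is observed minus expected fitness, with the expectation being the product, and its quartiles span technical, biological and donor/recipient replicates.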

[3] = test system: S. aureus DSM 20231; assay: as above
Summary of the method: as §1

[4] = test system: S. aureus Newman; assay: as above
Summary of the method: as §1

[5] = test system: S. pneumoniae D39V; assay: as above
Summary of the method: as §1
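For Bliss interaction score (quartile over a dose matrix) in this document: first quartile when negative (synergy) and third quartile when positive (antagonism).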
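For fitness (endpoint OD595 vs no drug) in this document: OD595 on entry to stationary phase over no-drug wells; at most 1.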

CC[C@H]1OC(=O)[C@H](C)[C@@H](O[C@H]2C[C@@](C)(OC)[C@@H](O)[C@H](C)O2)[C@H](C)[C@@H](O[C@@H]2O[C@H](C)C[C@H](N(C)C)[C@H]2O)[C@](C)(OC)C[C@@H](C)C(=O)[C@H](C)[C@@H](O)[C@]1(C)O [Clarithromycin] + Cc1ncc([N+](=O)[O-])n1CCO [Metronidazole]
fitness, [1], one replicate
Settings	first compound 0.007812 µg/mL	first compound 0.01562 µg/mL	first compound 0.03125 µg/mL
partner 1.25 µg/mL	0.927	0.903	0.669
partner 2.5 µg/mL	0.926	0.891	0.692
partner 5 µg/mL	0.917	0.856	0.668

fitness, [1]
Settings	first compound 0.0625 µg/mL	first compound 0.07 µg/mL	first compound 0.125 µg/mL	first compound 0.14 µg/mL	first compound 0.25 µg/mL	first compound 0.28 µg/mL
partner 1.073 µg/mL	0.729	–	0.542	–	0.337	–
partner 1.25 µg/mL	–	0.149	–	0.0801	–	0.0663
partner 2.145 µg/mL	0.734	–	0.598	–	0.393	–
partner 2.5 µg/mL	–	0.168	–	0.0889	–	0.101
partner 4.29 µg/mL	0.688	–	0.554	–	0.257	–
partner 5 µg/mL	–	0.178	–	0.114	–	0.0828

Settings	Bliss interaction score
[2]	0.103
[3]	0.118
[4]	-0.0393
[5]	0.106

C[C@@H](O)[C@H]1C(=O)N2C(C(=O)O)=C(SCCNC=N)C[C@H]12 [Imipenem] + CCN(CC)CCOC(=O)c1ccc(N)cc1 [Procaine]
fitness, [1], one replicate
Settings	first compound 0.005 µg/mL	first compound 0.01 µg/mL	first compound 0.02 µg/mL
partner 85.5 µg/mL	0.932	0.963	0.985
partner 171 µg/mL	≥ 1	0.994	≥ 1
partner 342 µg/mL	0.923	0.931	0.883

fitness, [1]
Settings	first compound 0.0065 µg/mL	first compound 0.013 µg/mL	first compound 0.026 µg/mL
partner 85.5 µg/mL	0.977	0.978	0.888
partner 171 µg/mL	0.957	0.963	0.917
partner 342 µg/mL	0.957	0.912	0.841

Settings	Bliss interaction score
[2]	0.0429
[3]	0.0667
[4]	0.0422
[5]	0.0493

CCC[C@@H]1C[C@@H](C(=O)N[C@@H]([C@H]2O[C@H](SC)[C@H](O)[C@@H](O)[C@H]2O)[C@@H](C)O)N(C)C1 [Lincomycin] + Clc1ccc(COC(Cn2ccnc2)c2ccc(Cl)cc2Cl)c(Cl)c1 [Miconazole]
[1]
Settings	fitness
first compound 0.2 µg/mL, partner 1.073 µg/mL	0.824
first compound 0.2 µg/mL, partner 2.145 µg/mL	0.874
first compound 0.2 µg/mL, partner 4.29 µg/mL	0.807
first compound 0.215 µg/mL, partner 1.25 µg/mL	0.808
first compound 0.215 µg/mL, partner 2.5 µg/mL	0.782
first compound 0.215 µg/mL, partner 5 µg/mL	0.81
first compound 0.4 µg/mL, partner 1.073 µg/mL	0.716
first compound 0.4 µg/mL, partner 2.145 µg/mL	0.683
first compound 0.4 µg/mL, partner 4.29 µg/mL	0.544
first compound 0.43 µg/mL, partner 1.25 µg/mL	0.71
first compound 0.43 µg/mL, partner 2.5 µg/mL	0.682
first compound 0.43 µg/mL, partner 5 µg/mL	0.689
first compound 0.8 µg/mL, partner 4.29 µg/mL	0.275
first compound 0.86 µg/mL, partner 1.25 µg/mL	0.264
first compound 0.86 µg/mL, partner 2.5 µg/mL	0.308
first compound 0.86 µg/mL, partner 5 µg/mL	0.377

Settings	Bliss interaction score
[2]	0.0378
[3]	0.0484
[4]	0.0538
[5]	0.117

CC[C@H]1OC(=O)[C@H](C)[C@@H](O[C@H]2C[C@@](C)(OC)[C@@H](O)[C@H](C)O2)[C@H](C)[C@@H](O[C@@H]2O[C@H](C)C[C@H](N(C)C)[C@H]2O)[C@](C)(OC)C[C@@H](C)C(=O)[C@H](C)[C@@H](O)[C@]1(C)O [Clarithromycin] + CN(C)C(=O)C(CCN1CCC(O)(c2ccc(Cl)cc2)CC1)(c1ccccc1)c1ccccc1 [Loperamide]
fitness, [1], one replicate
Settings	first compound 0.007812 µg/mL	first compound 0.01562 µg/mL	first compound 0.03125 µg/mL	first compound 0.0625 µg/mL	first compound 0.125 µg/mL	first compound 0.25 µg/mL
partner 20 µg/mL	≥ 1	≥ 1	0.711	–	–	–
partner 40 µg/mL	≥ 1	0.995	0.768	–	–	–
partner 68.57 µg/mL	–	–	–	0.913	0.515	0.498
partner 80 µg/mL	0.0268	0.0618	0.0304	–	–	–

fitness, [1]
Settings	first compound 0.0625 µg/mL	first compound 0.07 µg/mL	first compound 0.125 µg/mL	first compound 0.14 µg/mL	first compound 0.28 µg/mL
partner 17.14 µg/mL	0.788	–	0.541	–	–
partner 20 µg/mL	–	0.168	–	0.0771	0.0614
partner 34.28 µg/mL	0.751	–	0.491	–	–
partner 40 µg/mL	–	0.173	–	0.0855	0.0994
partner 80 µg/mL	–	0.0672	–	0.0833	0.047

Settings	Bliss interaction score
[2]	0.0248
[3]	0.18
[4]	-0.0355
[5]	0.129

Reference: the supplement of paper PMC10627819
